The record followed here is US20210283198A1, “METHOD FOR TREATING AND/OR PREVENTING COCCIDIOSIS” (priority 2020, published 2021).

The test system of this test is Eimeria tenella oocyst. Nature of the test: In vitro sporulation of the coccidia oocyst in 2% K2Cr2O7. The settings on record: 100 ppm, 25° C., 10^4 oocysts/mL, mean ± SD (n = 3). Type of test: cell-based. As for the experimental part:
Intestinal samples from naturally infected broilers were obtained from poultry farms. Un-sporulated oocysts were obtained from the cecal contents of broilers at day 8 post-infection. Oocyst sporulation was conducted in an aqueous solution of 2% potassium dichromate (K2Cr2O7) with or without surfactin standard or the Bacillus licheniformis-fermented product-derived surfactin C-form for 72 h at 25° C. (10^4 oocysts/mL). Sporulated and non-sporulated oocysts were counted and the percentage of sporulation was estimated by counting the number of sporulated oocysts in a total of 100 oocysts by microscopic observation. Second-generation merozoites were collected from ceca at 110 h post-infection from chickens that had been inoculated with 1×10^5 sporulated oocysts per bird. The merozoites (10^4/mL) were treated with or without surfactin standard or the Bacillus licheniformis-fermented product-derived surfactin C-form for 1 h at 37° C. Three groups of merozoites were prepared, including: (1) a control group comprising 10^4/ml merozoites without surfactin; (2) an experimental group comprising 10^4/ml merozoites treated with 100 ppm surfactin standard; and (3) an experimental group comprising 10^4/ml merozoites treated with the 100 ppm Bacillus licheniformis-fermented product-derived surfactin C-form. After incubation, propidium iodide was added to each well and then stained at 37° C. for 30 min in the dark. The stained samples were examined under a confocal laser-scanning microscope (ZEISS LSM800, Jena, Germany). The percentage of death of merozoite was determined by counting the number of dead merozoite in a total of 100 merozoites. The Eimeria sporozoites from vaccine were treated with different surfacitn for 1 h at 37° C. (10^6 sporozoites/mL). The sporozoites were fixed with 2.5% glutaraldehyde in 50 mM potassium phosphate buffer (pH 6.8) overnight at 4° C., and then washed three times with 50 mM potassium phosphate buffer (pH 6.8). Dehydration was performed in different concentrations of ethanol (35-100%) for 10 mM each and the samples were dried in a critical point drier (CPD 030, Bal-Tec AG, Balzers, Liechtenstein). Specimens were coated under vacuum with gold:palladium (60:40) in a sputter coater (Bal-Tec AG, Balzers, Liechtenstein), and examined using a scanning electron microscope (JSM-6300, JEOL Ltd., Tokyo, JAPAN). […]

Marks after values point to notes of the source that are not given here. *1 amine or outer side, *2 acyl side, *3 side chain or, on linkers, in order; H or OH if unused. Where a SMILES comes first, the peptide text is derived from it. Bridges are numbered along the chain shown (N, C = ends). [ ]: non-standard residue; d: D form. X1 = CC(C)CCCCCCCCC[C@H](CC(=O)[*:1])O[*:2]

Regarding `CC(C)CCCCCCCCC[C@@H]1CC(=O)N[C@@H](CCC(=O)O)C(=O)N[C@@H](CC(C)C)C(=O)N[C@H](CC(C)C)C(=O)N[C@@H](C(C)C)C(=O)N[C@@H](CC(=O)O)C(=O)N[C@H](CC(C)C)C(=O)N[C@@H](CC(C)C)C(=O)O1` [surfactin standard, surfactin] (EL[dL]VD[dL]L; linker N-C via X1), the “Sporulation of the coccidia oocyst (%)” value is 0% (12 h), 0% (24 h), 0^b % (48 h) and 0^b % (72 h).
